Source: patent publication US10183014B2, “Ocular formulations for drug-delivery and protection of the anterior segment of the eye” (PanOptica, Inc., priority 2014, dated 2019)
Several values for one entry are separate records, joined by “and”; a condition that tells them apart may be missing. Equal values may be shown once. Read-outs that look alike come from different tables or passages of the source.

Assays:
pathologic angiogenesis [1] = experiment: Pathologic angiogenesis, murine cornea model, systemic administration; type: in vivo
AURKB (Aurora B) = AURKB (Aurora B) (Homo sapiens, UniProt Q96GD4); experiment: In vitro inhibition of tyrosine kinases; type: biochemical; settings: read-out: Mean % Inhibition at 1 μM Compound-I; 1 μM (568.9 ng/mL)
HUVECs = experiment: Inhibition of VEGF-stimulated mitogenesis in HUVECs; type: cell-based; settings: Homo sapiens, HUVEC
EPHB-1 = EPHB-1 (Homo sapiens, UniProt P54762); experiment: In vitro inhibition of tyrosine kinases; type: biochemical; settings: read-out: Mean % Inhibition at 1 μM Compound-I; 1 μM (568.9 ng/mL)
PDGFRA T674I = PDGFRA T674I (Homo sapiens, UniProt P16234, T674I); experiment: In vitro inhibition of tyrosine kinases; type: biochemical; settings: read-out: Mean % Inhibition at 1 μM Compound-I; 1 μM (568.9 ng/mL)
FGR = FGR (Homo sapiens, UniProt P09769); experiment: In vitro inhibition of tyrosine kinases; type: biochemical; settings: read-out: Mean % Inhibition at 1 μM Compound-I; 1 μM (568.9 ng/mL)
pathologic angiogenesis [2] = experiment: Pathologic angiogenesis, rat growth plate model, systemic administration; type: in vivo
MAP4K4 (HGK) = MAP4K4 (HGK) (Homo sapiens, UniProt O95819); experiment: In vitro inhibition of tyrosine kinases; type: biochemical; settings: read-out: Mean % Inhibition at 1 μM Compound-I; 1 μM (568.9 ng/mL)
EPHB-4 = EPHB-4 (Homo sapiens, UniProt P54760); experiment: In vitro inhibition of tyrosine kinases; type: biochemical; settings: read-out: Mean % Inhibition at 1 μM Compound-I; 1 μM (568.9 ng/mL)
[3] = test system: retinal and choroidal neovascularization; experiment: Pathologic retinal and choroidal neovascularization, rodent models, topical ocular delivery; type: in vivo
[4] = PK with topical ocular Compound-I in sodium phosphate-based Gel Drop; type: in vivo, Dutch-Belted rabbits; settings: Dutch-Belted, rabbit, Gel Drop 6 mg/ml, 3x per day, 4 days, 1 hour after last dose
Source text: The Gel Drop of Compound-I was applied to eyes of Dutch-belted rabbits.

human tumor xenographs = experiment: Growth of human tumor xenographs in athymic mice; type: in vivo; settings: systemic administration
[5] = Concentrations of Compound-I in ocular fluids and tissues, 0.4% cyclodextrin solutions, 24-day study; type: in vivo, Dutch-Belted rabbits; settings: 0.4% cyclodextrin-based solutions, twice daily, day 24, 1 hour after first daily dose; for concentration at 1 h: Dutch-Belted, rabbit, topical, 0.4 % (4 mg/mL)
Method: The ocular solution of Compound-I comprising cyclodextrin was prepared and tested in different groups of animals.

SNF1LK2 = SNF1LK2 (Homo sapiens, UniProt Q9H0K1); experiment: In vitro inhibition of tyrosine kinases; type: biochemical; settings: read-out: Mean % Inhibition at 1 μM Compound-I; 1 μM (568.9 ng/mL)
MINK1 = MINK1 (Homo sapiens, UniProt Q8N4C8); experiment: In vitro inhibition of tyrosine kinases; type: biochemical; settings: read-out: Mean % Inhibition at 1 μM Compound-I; 1 μM (568.9 ng/mL)
[6] = Particle size distribution by laser diffraction light scattering; type: physicochemical; settings: API form HCl salt
Method: Particle size distribution can be analyzed using laser diffraction light scattering, e.g., with a Horiba LA-950 V2. Generic assumptions are made in setting conditions and the refractive index value. The distributions are volume based. Sample density is adjusted to a generic range of percent transmission on the blue LED light source. A small sample cell (filled with water) can be used rather than the flow through cell, to minimize sample quantity.
Particle size distribution was analyzed using laser diffraction light scattering with a Horiba LA-950 V2. Generic assumptions were made in setting conditions and the refractive index value. The distributions were volume based. Sample density was adjusted to a generic range of percent transmission on the blue LED light source. A small sample cell (filled with water) was used rather than the flow through cell, to minimize sample quantity.

[7] = Ocular toxicology studies; type: in vivo, beagle dogs
Source text: (§1) Retinal function was normal in all test article and vehicle treated groups during full-field electroretinograms performed in rabbits.

ABL1 T315I = ABL1 T315I (Homo sapiens, UniProt P00519, T315I); experiment: In vitro inhibition of tyrosine kinases; type: biochemical; settings: read-out: Mean % Inhibition at 1 μM Compound-I; 1 μM (568.9 ng/mL)
[8] = 5-day PK with topical ocular Compound-I in cyclodextrin-based solutions (Example 6); type: in vivo, Dutch-Belted rabbits; settings: HPβCD solutions; for concentration at 1 h: q.d. groups (4, 5a, 6a, 7, 8, 11, 12), 4 days, 1 hr after first daily dose day 5
Method: All doses were administered with ±1 hour of the scheduled dose time, except on day 1 for Groups 1, 4, and 10. The first dose on day 1 was administered at 12:00 PM, and the second dose (for Groups 1 and 10) was administered approximately 4 hours after. This was due to delayed arrival of formulations. All other dosing for these groups was as scheduled. On day 1, Groups 4-8, and 11-12 received one dose (q.d.) for four (4) days. On days 1 through 4, Groups 1-3, and 9-10 received b.i.d. dosing approximately 8 hours apart for four (4) days.
Ocular sampling occurred one hour following the first daily dose on day 5 for all groups, except Groups 5b and 6b, where ocular sampling occurred 24 hours after the first daily dose on day 4.
Blood samples for plasma collection were obtained just prior to scheduled euthanasia for all animals. […] Cornea, central retina, and central choroid samples from groups 1-12 were assayed. Aqueous humor, peripheral retina, and peripheral choroid samples were not assayed.

[9] = Ocular toxicology studies (tolerability and ocular tissue concentrations); type: in vivo, Dutch-Belted rabbits; settings: for concentration at 29 days: Dutch-Belted, topical, 0.3 %, 0.3% Ophthalmic Gel Drop (with and without benzylalkonium chloride), twice daily
Source text: as §1

FLT4 (VEGFR-3) = FLT4 (VEGFR-3) (Homo sapiens, UniProt P35916); experiment: In vitro inhibition of tyrosine kinases; type: biochemical; settings: read-out: Mean % Inhibition at 1 μM Compound-I; 1 μM (568.9 ng/mL)
FGFR-2 = FGFR-2 (Homo sapiens, UniProt P21802); experiment: In vitro inhibition of tyrosine kinases; type: biochemical
EPHA-1 = EPHA-1 (Homo sapiens, UniProt P21709); experiment: In vitro inhibition of tyrosine kinases; type: biochemical; settings: read-out: Mean % Inhibition at 1 μM Compound-I; 1 μM (568.9 ng/mL)
[10] = excipient HPMC, roller speed low, media size 3 mm, particles under storage 21 days, RT
[11] = excipient Pluronic F-127, roller speed high, media size 0.8 mm
[12] = excipient Tyloxapol, milling not given
[13] = excipient Tyloxapol, roller speed high, media size 0.8 mm, particles under storage 6 days, 40° C.
[14] = excipient Tyloxapol, roller speed low, media size 3 mm
[15] = discomfort, inflammation, corneal thinning
[16] = ophthalmic gel drops, topical ocular dosing

Chain of FGFR-2 (P21802 22-821, species assumed): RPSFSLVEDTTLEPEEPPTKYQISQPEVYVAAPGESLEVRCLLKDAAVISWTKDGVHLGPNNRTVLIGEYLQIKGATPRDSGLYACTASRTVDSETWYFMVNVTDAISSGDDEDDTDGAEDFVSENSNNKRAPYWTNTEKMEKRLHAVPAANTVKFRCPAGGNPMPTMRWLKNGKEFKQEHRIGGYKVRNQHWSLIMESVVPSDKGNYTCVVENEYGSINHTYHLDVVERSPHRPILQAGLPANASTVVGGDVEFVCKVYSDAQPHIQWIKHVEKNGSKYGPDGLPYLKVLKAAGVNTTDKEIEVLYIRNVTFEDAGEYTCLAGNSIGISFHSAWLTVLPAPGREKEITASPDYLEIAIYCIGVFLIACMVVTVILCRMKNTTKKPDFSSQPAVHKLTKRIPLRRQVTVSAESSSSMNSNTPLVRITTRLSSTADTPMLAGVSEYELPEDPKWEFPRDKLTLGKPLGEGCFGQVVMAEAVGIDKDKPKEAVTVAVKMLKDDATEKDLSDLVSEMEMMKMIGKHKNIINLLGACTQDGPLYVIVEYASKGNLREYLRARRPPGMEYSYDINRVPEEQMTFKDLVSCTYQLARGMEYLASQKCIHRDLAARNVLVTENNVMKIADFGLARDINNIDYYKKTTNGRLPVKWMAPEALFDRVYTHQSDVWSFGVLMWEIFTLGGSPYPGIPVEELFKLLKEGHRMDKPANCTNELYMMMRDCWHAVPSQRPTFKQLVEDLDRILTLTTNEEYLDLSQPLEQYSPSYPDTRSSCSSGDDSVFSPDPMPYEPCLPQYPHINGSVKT
Chain of EPHB-1 (P54762 18-984, species assumed): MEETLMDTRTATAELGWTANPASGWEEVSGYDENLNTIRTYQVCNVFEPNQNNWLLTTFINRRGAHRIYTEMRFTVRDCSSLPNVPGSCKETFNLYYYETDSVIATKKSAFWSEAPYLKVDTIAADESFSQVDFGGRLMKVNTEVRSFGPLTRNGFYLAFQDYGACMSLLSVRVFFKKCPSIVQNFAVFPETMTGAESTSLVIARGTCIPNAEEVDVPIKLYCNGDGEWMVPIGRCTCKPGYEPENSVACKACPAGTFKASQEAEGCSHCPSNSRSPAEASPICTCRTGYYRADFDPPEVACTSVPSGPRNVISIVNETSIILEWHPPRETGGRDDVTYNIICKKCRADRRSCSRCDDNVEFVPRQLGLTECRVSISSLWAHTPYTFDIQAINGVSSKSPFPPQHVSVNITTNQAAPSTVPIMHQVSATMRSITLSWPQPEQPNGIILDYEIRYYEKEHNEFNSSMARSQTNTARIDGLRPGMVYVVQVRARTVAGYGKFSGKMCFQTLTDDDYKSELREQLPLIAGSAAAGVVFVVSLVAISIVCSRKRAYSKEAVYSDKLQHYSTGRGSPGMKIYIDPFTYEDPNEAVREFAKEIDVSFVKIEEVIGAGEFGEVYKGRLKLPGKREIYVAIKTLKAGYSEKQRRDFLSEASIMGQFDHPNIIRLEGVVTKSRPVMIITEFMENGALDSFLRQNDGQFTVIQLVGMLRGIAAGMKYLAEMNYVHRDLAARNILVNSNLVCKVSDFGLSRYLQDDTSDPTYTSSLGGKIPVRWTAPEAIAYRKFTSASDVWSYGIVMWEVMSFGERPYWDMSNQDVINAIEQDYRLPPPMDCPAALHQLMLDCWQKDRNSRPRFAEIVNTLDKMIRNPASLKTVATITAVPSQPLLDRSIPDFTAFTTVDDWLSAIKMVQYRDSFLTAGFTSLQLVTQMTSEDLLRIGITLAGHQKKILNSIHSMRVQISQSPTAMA
Chain of MAP4K4 (HGK) (O95819 whole entry, species assumed): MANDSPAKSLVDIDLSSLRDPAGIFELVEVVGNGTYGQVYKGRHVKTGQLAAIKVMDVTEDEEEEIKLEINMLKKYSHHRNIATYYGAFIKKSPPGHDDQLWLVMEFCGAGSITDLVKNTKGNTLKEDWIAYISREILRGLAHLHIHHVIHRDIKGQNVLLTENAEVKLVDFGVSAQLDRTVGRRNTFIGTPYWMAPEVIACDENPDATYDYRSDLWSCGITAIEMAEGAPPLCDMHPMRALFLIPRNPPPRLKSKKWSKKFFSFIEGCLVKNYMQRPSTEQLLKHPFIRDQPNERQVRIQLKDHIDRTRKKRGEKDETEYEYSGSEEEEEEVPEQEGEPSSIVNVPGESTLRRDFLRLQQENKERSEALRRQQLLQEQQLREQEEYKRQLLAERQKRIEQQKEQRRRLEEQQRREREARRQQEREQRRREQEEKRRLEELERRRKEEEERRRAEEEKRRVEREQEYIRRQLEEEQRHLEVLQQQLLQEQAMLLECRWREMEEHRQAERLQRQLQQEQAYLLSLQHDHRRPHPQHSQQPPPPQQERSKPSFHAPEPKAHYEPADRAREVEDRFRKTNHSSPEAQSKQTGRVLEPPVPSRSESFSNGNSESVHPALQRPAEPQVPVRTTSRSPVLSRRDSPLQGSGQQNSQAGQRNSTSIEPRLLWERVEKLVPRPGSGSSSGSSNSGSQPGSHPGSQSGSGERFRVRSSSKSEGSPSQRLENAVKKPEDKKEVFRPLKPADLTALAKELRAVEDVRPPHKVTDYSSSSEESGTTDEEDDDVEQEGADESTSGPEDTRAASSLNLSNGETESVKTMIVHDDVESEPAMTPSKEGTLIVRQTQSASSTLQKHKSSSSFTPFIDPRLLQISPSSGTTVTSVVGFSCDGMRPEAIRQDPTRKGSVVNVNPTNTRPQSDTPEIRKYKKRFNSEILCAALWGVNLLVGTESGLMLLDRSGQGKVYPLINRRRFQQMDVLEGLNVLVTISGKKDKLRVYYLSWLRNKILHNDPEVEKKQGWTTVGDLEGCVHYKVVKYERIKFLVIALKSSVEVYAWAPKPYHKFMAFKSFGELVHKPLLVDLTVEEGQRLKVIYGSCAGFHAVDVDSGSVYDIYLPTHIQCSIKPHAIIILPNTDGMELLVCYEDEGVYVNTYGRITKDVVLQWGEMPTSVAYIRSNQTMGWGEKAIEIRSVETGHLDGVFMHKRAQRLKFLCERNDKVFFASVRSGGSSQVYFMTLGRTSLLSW
Chain of PDGFRA T674I (P16234 24-1089 T674I): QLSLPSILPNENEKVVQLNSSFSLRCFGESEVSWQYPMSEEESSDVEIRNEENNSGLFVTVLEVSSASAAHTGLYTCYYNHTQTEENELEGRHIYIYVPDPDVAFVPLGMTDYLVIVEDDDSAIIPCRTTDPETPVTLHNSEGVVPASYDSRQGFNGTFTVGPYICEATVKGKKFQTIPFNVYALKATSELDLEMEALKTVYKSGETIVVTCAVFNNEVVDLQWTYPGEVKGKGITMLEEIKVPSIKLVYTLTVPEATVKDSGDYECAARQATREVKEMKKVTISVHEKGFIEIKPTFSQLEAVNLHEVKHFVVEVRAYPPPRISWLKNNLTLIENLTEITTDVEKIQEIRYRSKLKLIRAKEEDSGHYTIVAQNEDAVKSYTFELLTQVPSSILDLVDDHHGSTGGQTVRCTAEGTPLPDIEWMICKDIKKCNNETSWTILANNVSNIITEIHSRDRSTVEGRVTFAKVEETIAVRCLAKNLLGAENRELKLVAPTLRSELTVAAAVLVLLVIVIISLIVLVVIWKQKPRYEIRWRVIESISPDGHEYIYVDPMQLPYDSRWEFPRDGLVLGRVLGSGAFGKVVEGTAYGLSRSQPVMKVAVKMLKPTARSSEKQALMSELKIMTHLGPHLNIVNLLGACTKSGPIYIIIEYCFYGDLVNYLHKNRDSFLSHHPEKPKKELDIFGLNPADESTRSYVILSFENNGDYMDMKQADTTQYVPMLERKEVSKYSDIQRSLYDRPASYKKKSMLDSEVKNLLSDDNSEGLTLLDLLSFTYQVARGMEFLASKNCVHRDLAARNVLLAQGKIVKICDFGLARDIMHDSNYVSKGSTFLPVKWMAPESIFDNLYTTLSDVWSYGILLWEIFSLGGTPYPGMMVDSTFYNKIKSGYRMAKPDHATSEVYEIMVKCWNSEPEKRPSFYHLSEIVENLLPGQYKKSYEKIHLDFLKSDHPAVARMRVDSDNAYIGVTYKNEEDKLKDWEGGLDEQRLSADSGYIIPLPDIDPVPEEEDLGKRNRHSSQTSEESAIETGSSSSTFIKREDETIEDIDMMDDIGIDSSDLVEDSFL
Chain of AURKB (Aurora B) (Q96GD4 whole entry, species assumed): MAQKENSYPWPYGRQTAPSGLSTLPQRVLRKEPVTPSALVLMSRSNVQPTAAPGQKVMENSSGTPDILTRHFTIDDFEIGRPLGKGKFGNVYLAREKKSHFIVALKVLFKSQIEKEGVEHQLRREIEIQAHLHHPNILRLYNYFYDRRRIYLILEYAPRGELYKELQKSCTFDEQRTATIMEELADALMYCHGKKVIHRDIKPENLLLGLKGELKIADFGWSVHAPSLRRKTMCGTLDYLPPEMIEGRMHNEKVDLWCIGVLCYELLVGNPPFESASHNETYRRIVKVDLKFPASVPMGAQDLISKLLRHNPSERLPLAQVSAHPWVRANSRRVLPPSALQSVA
Chain of FGR (P09769 whole entry, species assumed): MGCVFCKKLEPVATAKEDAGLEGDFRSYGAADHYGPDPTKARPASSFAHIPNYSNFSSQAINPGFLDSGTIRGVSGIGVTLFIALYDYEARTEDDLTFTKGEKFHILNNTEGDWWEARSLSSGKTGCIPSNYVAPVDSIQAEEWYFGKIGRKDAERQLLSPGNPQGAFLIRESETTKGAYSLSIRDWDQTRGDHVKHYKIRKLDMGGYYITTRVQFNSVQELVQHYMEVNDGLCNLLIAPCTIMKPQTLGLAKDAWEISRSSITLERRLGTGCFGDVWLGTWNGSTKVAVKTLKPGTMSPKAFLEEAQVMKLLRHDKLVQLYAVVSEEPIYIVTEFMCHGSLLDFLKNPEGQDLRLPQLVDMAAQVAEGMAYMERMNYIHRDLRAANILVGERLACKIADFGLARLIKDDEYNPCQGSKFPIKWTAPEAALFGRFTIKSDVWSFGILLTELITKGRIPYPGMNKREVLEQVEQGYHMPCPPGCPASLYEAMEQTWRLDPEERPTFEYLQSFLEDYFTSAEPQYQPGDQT

SMILES: Cl.NC(=O)c1c(OCc2c(F)cc(Br)cc2F)nsc1NC(=O)NCCCCN1CCCC1 [Compound-I, 3-[(4-bromo-2,6-difluorophenyl)methoxy]-5-[[[[4-(1-pyrrolidinyl)butyl]amino]carbonyl]amino]-4-isothiazolecarboxamide hydrochloride]
- Pathologic angiogenesis (pathologic angiogenesis [1]): inhibit
- inhibition at 1 µM (AURKB (Aurora B)): 82%
- IC50 (HUVECs): 14.1 nM and 0.008 µg/mL
- inhibition at 1 µM (EPHB-1): 83%
- inhibition at 1 µM (PDGFRA T674I): 86%
- inhibition at 1 µM (FGR): 91%
- Pathologic angiogenesis (pathologic angiogenesis [2]): inhibit
- inhibition at 1 µM (MAP4K4 (HGK)): 100%
- inhibition at 1 µM (EPHB-4): 80%
- Pathologic retinal and choroidal neovascularization [3]: significant inhibition
- concentration at 1 h ([4]; aqueous humor (AH), read-out: Mean [AH]): 50.9 nM
- concentration at 1 h ([4]; plasma, read-out: [plasma]): 12.5 nM
- Growth of human tumor xenographs (human tumor xenographs): inhibit
- Corneal concentration, range over solutions [5]: 6.49 to 30 µM
- concentration at 1 h ([5]; aqueous humor, read-out: Aqueous humor concentration, range over solutions): 2 to 7 nM
- concentration at 1 h ([5]; central retina, read-out: Central retina concentration, range over solutions): 53.1 to 124 nM
- inhibition at 1 µM (SNF1LK2): 82%
- inhibition at 1 µM (MINK1): 100%
- PSD (Particle Size Distribution) Mean [6, 10]: ~450 nm
- PSD (Particle Size Distribution) Median [6, 10]: ~170 nm
- PSD (Particle Size Distribution) Mean [6, 11]: ~100 nm
- PSD (Particle Size Distribution) Median [6, 11]: ~100 nm
- PSD (Particle Size Distribution) Mean [6, 12]: ~110 nm
- PSD (Particle Size Distribution) Median [6, 12]: ~110 nm
- PSD (Particle Size Distribution) Mean [6, 13]: ~120 nm
- PSD (Particle Size Distribution) Median [6, 13]: ~110 nm
- PSD (Particle Size Distribution) Mean [6, 14]: ~8500 nm
- PSD (Particle Size Distribution) Median [6, 14]: ~6700 nm
- Cornea concentration above which ocular side effects were more consistently observed [7, 15]: exceeded 100 μM
- Corneal tissue exposure [7, 16]: ≥ 100 µM
- inhibition at 1 µM (ABL1 T315I): 101%
- concentration at 24 h ([8]; Dutch-Belted, rabbit, central choroid, topical, 30 μL bilateral, q.d. groups 5b, 6b, 24 hr after first daily dose day 4): 194 nM
- concentration at 1 h ([8]; Dutch-Belted, rabbit, central choroid, topical, 30 μL bilateral, read-out: Average Concentration Central Choroid): 203 nM
- concentration at 1 h ([8]; Dutch-Belted, rabbit, central retina, topical, 30 μL bilateral, read-out: Average Concentration Central Retina): 48.1 nM
- Average Concentration Central Retina ([8]; q.d. groups 5b, 6b, 24 hr after first daily dose day 4): <LLOQ
- Microscopic evaluation of eyes ([9]; 0.3% w/v Tris-based suspension twice daily for 30 days): considered normal
- Findings attributed to test-article or vehicle ([9]; 0.6% cyclodextrin-based solution, 30 days topical ocular dosing): no untoward findings
- concentration at 29 days ([9]; rabbit, central choroid, read-out: Central Choroid [Compound I]): 340 to 496 nM
- concentration at 29 days ([9]; rabbit, cornea, read-out: Cornea [Compound I]): 236000 to 260000 nM
- Retinal function (full-field electroretinograms) ([9]; all test article groups): normal
- Cornea concentration above which ocular side effects were more consistently observed [9, 15]: exceeded 100 μM
- Corneal tissue exposure [9, 16]: ≥ 100 µM
- Corneal concentration, Gel Drop compared to Tris-based suspensions ([9]; rabbit, in vivo): fifty-fold to hundred-fold higher
- Corneal concentration, Gel Drop compared to cyclodextrin based solution ([9]; rabbit, in vivo): five-fold to fifteen-fold higher
- Ocular tolerability (clinical ophthalmic examinations) ([9]; rabbit, in vivo): well tolerated
- Reduction of corneal exposure versus Gel Drop ([9]; suspension-based and cyclodextrin formulations): 10-100 ×
- Reduction in corneal concentrations, cyclodextrin-based solution versus equimolar Gel Drop ([9]; topical ocular dosing 1 to 30 days, hydrochloride): ~10 fold
- inhibition at 1 µM (FLT4 (VEGFR-3)): 95%
- inhibition at 0.3 µM (FGFR-2; read-out: Mean % Inhibition at 300 nM Compound-I, 300 nM (170.67 ng/mL)): 103%
- inhibition at 1 µM (FGFR-2; read-out: Mean % Inhibition at 1 μM Compound-I, 1 μM (568.9 ng/mL)): 99%
- inhibition at 1 µM (EPHA-1): 81%
